# From patent US20200024347A1, “OR10H1 ANTIGEN BINDING PROTEINS AND USES THEREOF” (iOmx Therapeutics AG, priority 2016, published 2020)
# What was measured:
# Assay type in all cases: cell-based, human
# OR10H1 mRNA = experiment: RT-PCR of OR10H1 mRNA after siRNA transfection; conditions: M579-A2 cells, 72 h after transfection
# Method: SMART pool siRNA against OR10H1 (GE Dharmacon) were tested (by RT-PCR) for their activity in downregulating OR10H1 mRNA in M579 (melanoma) cells. […] Details of the respective siRNAs are set out in Table E1.
# M579-A2-luc cells [1] = experiment: Luc-CTL cytotoxicity assay, TIL412-mediated killing of M579-A2-luc
# Text: It was surprising to find that all siRNAs show an impact on TIL412-mediated killing of M579-A2-luc at 5:1 Effector to Target cell (E:T) ratio (FIG. 1B). Transfection of M579-A2-luc cells with OR10H1 siRNA 1 increased HLA-matched patient-derived tumor-infiltrating lymphocyte (TIL, clone 412)-mediated killing to 70% (30% remaining melanoma cells compared to a scrambled negative control siRNA; p=<0.0001). This increase in TIL-mediated lysis is stronger than for PD-L1 positive control knock-down (39% remaining cells).
# (§1) The effects of siRNA knock-down on TIL-mediated killing and lysis in a chromium release assay were investigated as described in Khandelwal et al, 2015 (EMBO Mol Med 7:450-63). Tumor-infiltrating lymphocytes 412 and 209 microcultures were expanded from an inguinal lymph node of a melanoma patient as described in Dudley et al, 2010 (Clin Cancer Res 16:6122-31). M615, TIL615 and other patient-derived TIL cells were obtained analogously as described in Dudley et al, 2010. M579-A2-luc cells and M615-luc cells were produced from M579-A2 and M615, respectively (Machlenkin et al, 2008; Cancer Res 68:2006-13).
# M579-A2-luc cells [2] = test system: M579-A2-luc cells
# OR10H1 = experiment: Stable lentiviral shRNA knock-down of OR10H1 in M579-A2
# M579-A2 cells = experiment: Chromium release assay, lysis of M579-A2 by TIL209; conditions: TIL209, 12.5 E:T ratio, 4 h co-culture
# Method: TIL-mediated lysis of M579-A2 was validated in chromium release assay (4 h co-culture). […] Indeed, this effect of OR10H1 knock-down was stronger than the PD-L1 positive control knock-down (41% specific lysis at 12.5 E:T ratio; FIG. 1C).
# as §1
# [3] = test system: SW480 colorectal cancer cells; experiment: Chromium release assay, lysis of SW480 by HLA-matched TILs; conditions: SW480, 50:1 E:T ratio, 4 h co-culture
# Method: (§2) Furthermore, it was tested whether OR10H1 knock-down also has an effect in other cancers. […] SW480 (ATCC) and PANC-1 cells were analyzed for their expression of OR10H1 (see above) and the knock-down efficacy of the siRNAs were validated. The CRC cell line SW480 and the PANC-1 cell line were each co-cultured with corresponding HLA-matched TILs for chromium release (4 h co-culture). OR10H1 siRNA 1 almost tripled the lysis of SW480 by TILs in all effector to target ratios compared to the negative control siRNA (33% to 12.8% specific lysis at 50:1 E:T ratio; FIG. 1E). Indeed, knock-down of OR10H1 was almost as effective as knock-down of PD-L1 positive control on TIL-mediated lysis (FIG. 1E). Such effect was also surprising to see in pancreatic cancer cells: knock-down of OR10H1 (siRNA 1) doubled the lysis of PANC-1 by TILs in all effector to target ratios compared to the negative control siRNA (53% to 26% specific lysis at 50:1 E:T ratio; FIG. 1F).
# (§3) The effects of siRNA knock-down on TIL-mediated killing and lysis in a chromium release assay were investigated as described in Khandelwal et al, 2015 (EMBO Mol Med 7:450-63). Tumor-infiltrating lymphocytes 412 and 209 microcultures were expanded from an inguinal lymph node of a melanoma patient as described in Dudley et al, 2010 (Clin Cancer Res 16:6122-31). […]
# [4] = test system: PANC-1 pancreatic adenocarcinoma cells; experiment: Chromium release assay, lysis of PANC-1 by HLA-matched TILs; conditions: PANC-1, 50:1 E:T ratio, 4 h co-culture
# Method: as §2, §3
# TIL412 = experiment: Luminex cytokine secretion of TIL412 after co-culture with M579-A2; conditions: 20 h co-culture
substance,measurement,setting,value
"OR10H1 siRNA 3: siRNA against OR10H1, GCAGAGAGCCAAUCACUCC, GE Dharmacon D-020479-03, SEQ ID No. 26 (listed as RNA, chemistry not given here; listed as Homo sapiens)",knock-down of OR10H1 mRNA (RT-PCR),OR10H1 mRNA,strong reduction
same,effect on M579-A2-luc viability,M579-A2-luc cells [1]; without the presence of TILs,shows an effect
"OR10H1 siRNA 4: siRNA against OR10H1, GGUCGUGCACUAUGGCUUU, GE Dharmacon D-020479-04, SEQ ID No. 27 (listed as RNA, chemistry not given here; listed as Homo sapiens)",knock-down of OR10H1 mRNA (RT-PCR),OR10H1 mRNA,weaker but clear reduction
cholera toxin,TIL-mediated lysis,M579-A2-luc cells [2],around 30%
same,effect on OR10H1 knockdown-mediated increase in TIL-mediated tumor lysis,M579-A2-luc cells [2],abrogated
same,effect on TIL-mediated tumor lysis in OR10H1 siRNA transfected (OR10H1-negative) M579-A2-luc,M579-A2-luc cells [2],dramatically decreases
same,effect on TIL-mediated tumor lysis in control siRNA transfected M579-A2-luc,M579-A2-luc cells [2],slight decrease
"OR10H1 shRNA 4: shRNA against OR10H1, TCTGCTGAAGGTCGGAACAAG, Sigma Aldrich TRCN0000357708, SEQ ID No. 31 (the letters are possibly those of the target site; listed as Homo sapiens)",impact on OR10H1 expression and functionality,OR10H1,strongest impact
pertussis toxin,effect on TIL-mediated tumor lysis in OR10H1 siRNA transfected (OR10H1-negative) M579-A2-luc,M579-A2-luc cells [2],not observed
same,effect on TIL-mediated tumor lysis in control siRNA transfected M579-A2-luc,M579-A2-luc cells [2],slightly decreased
"OR10H1 siRNA 1: siRNA against OR10H1, GGAGACACCUUGAUGGGCA, GE Dharmacon D-020479-01, SEQ ID No. 24 (listed as RNA, chemistry not given here; listed as Homo sapiens)",knock-down of OR10H1 mRNA (RT-PCR),OR10H1 mRNA,complete absence
same,TIL-mediated killing,"M579-A2-luc cells [1]; TIL412, 5:1 E:T ratio",70%
same,remaining melanoma cells compared to scrambled negative control siRNA,"M579-A2-luc cells [1]; TIL412, 5:1 E:T ratio",30%
same,specific lysis,M579-A2 cells,57%
same,specific lysis,[3],33%
same,specific lysis,[4],53%
same,decrease of IL-6 secretion,TIL412,37%
same,decrease of MCP-1 secretion,TIL412,39%
same,increase of IFN-gamma secretion compared to negative control,TIL412,8%
same,increase of IL-2 secretion,TIL412,58%
same,IFN-gamma secretion,TIL412; supernatant,3037 pg/mL
same,IL-2 secretion,TIL412; supernatant,1701 pg/mL
same,IL-4 secretion,TIL412; supernatant,11.8 pg/mL
same,IL-6 secretion,TIL412; supernatant,31 pg/mL
same,MCP-1 secretion,TIL412; supernatant,4035 pg/mL
same,decrease of IL-4 secretion,TIL412; trend,20%
"OR10H1 siRNA 2: siRNA against OR10H1, AGUAAACUCUACCCAGAAA, GE Dharmacon D-020479-02, SEQ ID No. 25 (listed as RNA, chemistry not given here; listed as Homo sapiens)",knock-down of OR10H1 mRNA (RT-PCR),OR10H1 mRNA,weaker but clear reduction
